Molecular target: T1, D-3-phosphoglycerate dehydrogenase (Homo sapiens, UniProt O43175)
T1 sequence (O43175 whole entry): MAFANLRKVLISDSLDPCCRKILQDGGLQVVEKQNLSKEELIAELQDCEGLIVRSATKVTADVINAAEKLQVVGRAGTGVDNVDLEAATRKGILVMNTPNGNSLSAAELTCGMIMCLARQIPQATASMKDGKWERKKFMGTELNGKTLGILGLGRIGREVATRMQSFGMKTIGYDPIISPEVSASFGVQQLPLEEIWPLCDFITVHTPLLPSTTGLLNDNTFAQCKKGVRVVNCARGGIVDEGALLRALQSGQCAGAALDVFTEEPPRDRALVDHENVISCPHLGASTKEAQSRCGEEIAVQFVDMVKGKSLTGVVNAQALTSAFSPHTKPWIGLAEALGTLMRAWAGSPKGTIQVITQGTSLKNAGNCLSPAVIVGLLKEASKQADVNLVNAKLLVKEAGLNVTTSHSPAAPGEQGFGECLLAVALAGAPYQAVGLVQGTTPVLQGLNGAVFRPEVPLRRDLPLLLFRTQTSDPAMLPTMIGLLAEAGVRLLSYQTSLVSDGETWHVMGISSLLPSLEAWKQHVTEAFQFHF
Assay: Inhibition of N-terminal His6-tagged human PHGDH (4 to 315 residues) assessed as effect on NADH fluorescence incubated for 2 hrs using 3-PG substrate in presence of 19 uM NAD+ and PSAT1 by diaphorase based luminescence assay

Q: With `Cn1c(C(=O)NC(CN)c2ccccc2)cc2cc(Cl)ccc21` (racemic) as the compound, how does the IC50 read?
A: Its IC50 is 39.6 µM.

Q: For `Cn1c(C(=O)NC(C(N)=O)c2ccccc2)cc2cc(Cl)ccc21` (racemic), which IC50 is on record?
A: Its IC50 is > 100 µM.

Q: Which IC50 does the source give for `Cn1nc(-c2ccccc2)cc1C(=O)NC(C)(C)c1ccc(C(=O)O)cc1` here?
A: Its IC50 is 1.3 µM.

Q: For `Cn1c(C(=O)NC(C(=O)O)c2ccccc2)cc2cc(Cl)ccc21` (racemic), which IC50 is on record?
A: Its IC50 is > 100 µM.

Q: How did the IC50 turn out when `C[C@@H](NC(=O)c1cc(-c2ccccc2)nn1C)c1ccc(N2C(=O)CNC2=O)cc1` was run?
A: The IC50 was 2.3 µM.

Q: `C[C@@H](NC(=O)c1cc(-c2ccccc2)nn1C)c1ccc(NS(C)(=O)=O)cc1` was tested. Which IC50 did it give?
A: Its IC50 is 53.8 µM.

Q: How did the IC50 turn out when `C[C@@H](NC(=O)c1cc(-c2ccccc2)nn1C)c1ccc(CO)cc1` was run?
A: The IC50 was 6 µM.

Q: Which IC50 does the source give for `Cc1cc(Cl)c2cc(C(=O)N[C@H](C)c3ccc(S(=O)(=O)CC(=O)O)cc3)n(C)c2c1` here?
A: Its IC50 is 0.003 µM.

Q: With `COCC(NC(=O)c1cc2cc(Cl)ccc2n1C)c1ccccc1` (racemic) as the compound, how does the IC50 read?
A: The IC50 was > 100 µM.

Q: With `C[C@@H](NC(=O)c1cc(-c2ccccc2)nn1C)c1ccc(NC(=N)N)cc1` as the compound, how does the IC50 read?
A: The IC50 was > 100 µM.

Q: Which IC50 does the source give for `COc1ccc([C@@H](C)NC(=O)c2cc(-c3ccccc3)nn2C)cc1` here?
A: The IC50 was 16.2 µM.

Q: Which IC50 does the source give for `C[C@@H](NC(=O)c1cc(-c2ccccc2)nn1C)c1ccc(N2CCCC2)cc1` here?
A: The IC50 was 42.1 µM.

Q: Which IC50 does the source give for `CC(NC(=O)c1cc(-c2ccccc2)nn1C)c1ccc(S(C)(=O)=O)cc1` (racemic) here?
A: The IC50 was 5.83 µM.

Q: With `C[C@@H](NC(=O)c1cc(-c2ccccc2)nn1C)c1ccc(C(=O)O)cc1` as the compound, how does the IC50 read?
A: Its IC50 is 0.4 µM.

Q: With `CC(NC(=O)c1cc(-c2ccccc2)nn1C)c1ccc(N(C)S(C)(=O)=O)cc1` (racemic) as the compound, how does the IC50 read?
A: The IC50 was 6.7 µM.

Q: Which IC50 does the source give for `C[C@@H](NC(=O)c1cc(-c2ccccc2)nn1C)c1ccc([N+](=O)[O-])cc1` here?
A: The IC50 was 55.4 µM.

Q: Which IC50 does the source give for `Cc1ccc([C@@H](C)NC(=O)c2cc(-c3ccccc3)nn2C)cc1` here?
A: The IC50 was 23.2 µM.

Q: With `C[C@@H](NC(=O)c1cc(-c2ccccc2)nn1C)c1ccc(N)cc1` as the compound, how does the IC50 read?
A: The IC50 was 38.1 µM.

Q: For `Cn1c(C(=O)N[C@@H](c2ccccc2)[C@@H](O)C(F)(F)F)cc2cc(Cl)ccc21` (relative stereo), which IC50 is on record?
A: The IC50 was > 100 µM.

Q: Which IC50 does the source give for `C[C@@H](NC(=O)c1cc(-c2ccccc2)nn1C)c1ccc(C(N)=O)cc1` here?
A: The IC50 was 3.1 µM.

Q: Which IC50 does the source give for `C[C@H](O)[C@@H](NC(=O)c1cc2cc(Cl)ccc2n1C)c1ccccc1` here?
A: Its IC50 is 11.7 µM.

Q: `C[C@@H](NC(=O)c1cc(-c2ccccc2)nn1C)c1ccc(N2CC[C@H](O)C2)cc1` was tested. Which IC50 did it give?
A: The IC50 was 12.2 µM.

Q: `C[C@@H](NC(=O)c1cc2ccccc2n1C)c1ccc(C(=O)O)cc1` was tested. Which IC50 did it give?
A: The IC50 was 1.95 µM.

Q: For `C[C@@H](NC(=O)c1cc(-c2ccccc2)nn1C)c1ccccc1`, which IC50 is on record?
A: Its IC50 is 22 µM.

Q: For `CC(NC(=O)c1cc(-c2ccccc2)nn1C)c1ccc(C#N)cc1` (racemic), which IC50 is on record?
A: The IC50 was 33.7 µM.

Q: With `CC(NC(=O)c1cc(-c2ccccc2)nn1C)c1ccc(CC(=O)O)cc1` (racemic) as the compound, how does the IC50 read?
A: Its IC50 is 0.8 µM.

Q: For `C[C@H](NC(=O)c1cc(-c2ccccc2)nn1C)c1ccccc1`, which IC50 is on record?
A: Its IC50 is > 100 µM.

Q: Which IC50 does the source give for `C[C@@H](NC(=O)c1cc(-c2ccccc2)nn1C)c1ccc(N2CCCC2=O)cc1` here?
A: The IC50 was 3.3 µM.

Q: Which IC50 does the source give for `CC(NC(=O)c1cc(-c2ccccc2)nn1C)c1ccc(C(=O)O)cc1` (racemic) here?
A: Its IC50 is 0.9 µM.

Q: With `C[C@@H](NC(=O)c1cc(-c2ccccc2)nn1C)c1ccc(N2CCCS2(=O)=O)cc1` as the compound, how does the IC50 read?
A: The IC50 was 2.5 µM.

Q: How did the IC50 turn out when `Cn1c(C(=O)NC(CO)c2ccccc2)cc2cc(Cl)ccc21` (racemic) was run?
A: Its IC50 is 5.2 µM.

Q: Which IC50 does the source give for `C[C@@H](NC(=O)c1cc(-c2ccccc2)nn1C)c1ccc(-c2cncnc2)cc1` here?
A: The IC50 was 21.5 µM.

Q: Which IC50 does the source give for `CC(=O)NS(=O)(=O)c1ccc([C@@H](C)NC(=O)c2cc(-c3ccccc3)nn2C)cc1` here?
A: Its IC50 is 0.1 µM.

Q: For `Cn1c(C(=O)NC(CCO)c2ccccc2)cc2cc(Cl)ccc21` (racemic), which IC50 is on record?
A: The IC50 was 100 µM.

Q: How did the IC50 turn out when `C[C@@H](NC(=O)c1cc(-c2ccccc2)nn1C)c1ccc(N2C(=O)CC[C@H]2C(=O)O)cc1` was run?
A: Its IC50 is 0.1 µM.

Q: Which IC50 does the source give for `C[C@@H](NC(=O)c1cc(-c2ccccc2)nn1C)c1ccc(S(=O)(=O)CC(=O)O)cc1` here?
A: Its IC50 is 0.025 µM.

Q: `C[C@@H](NC(=O)c1cc(-c2ccccc2)nn1C)c1ccc(N(CC(=O)O)S(C)(=O)=O)cc1` was tested. Which IC50 did it give?
A: The IC50 was 1.4 µM.

Q: Which IC50 does the source give for `Cn1nc(-c2ccccc2)cc1C(=O)NCc1ccccc1` here?
A: The IC50 was > 100 µM.

Q: For `CC(NC(=O)c1cc(-c2ccccc2)nn1C)c1ccc(S(N)(=O)=O)cc1` (racemic), which IC50 is on record?
A: Its IC50 is 4.3 µM.

— ChEMBL document CHEMBL4373702, “Intracellular Trapping of the Selective Phosphoglycerate Dehydrogenase (PHGDH) Inhibitor BI-4924 Disrupts Serine Biosynthesis” (J Med Chem, 2019)
